Legend:
Swiss mice = assay: Mouse Matrigel plug angiogenesis assay; format: in vivo; details: endothelial-cell infiltration, n = 5 mice
Method: Figure 6 Inhibition of in vitro and in vivo angiogenesis by HB-19. (A) HB-19 inhibits proliferation of HUVECs. Twenty-four hours after seeding HUVECs in 2% FBS, cells were stimulated by 0.25 nM VEGF165, in the absence or presence of 1 µM HB-19 or 0.1 µM anti-nucleolin mAb MS-3 as indicated. After 72 h, cell number was determined by crystal violet staining. The data are reported as the mean of triplicate samples. (B) HB-19 inhibits migration of HUVECs. Cell migration was studied using a modified Boyden chamber. Cells were incubated (4 h at 37°C) with VEGF165, HB-19, or anti-nucleolin mAb MS-3 as above. Cells that migrated through the pore to the lower filter surface were counted and are shown as number per microscopic field at ×100 magnification. The data are the mean of three independent high-power fields/well performed in duplicate in two independent experiments. […] Aortic endothelial (ABAE) cells in the absence or presence of 3 nM PTN, 0.5 nM VEGF165, and 3 nM FGF-2 were seeded on a three-dimensional collagen gel in complete medium. […] Tubular network structures were quantified using phase contrast microscopy (×100). […] Quantification of endothelial cell invasion into the Matrigel was determined and is expressed as a mean of five fields per section from 3 Matrigel-plug sections per mouse. The results are expressed as the mean of five mice per group. […]

[1] = test system: Aortic endothelial (ABAE) cells; assay: Tubular network structure formation in collagen gel; format: cell-based, bovine
Method: Figure 6 Inhibition of in vitro and in vivo angiogenesis by HB-19. (A) HB-19 inhibits proliferation of HUVECs. Twenty-four hours after seeding HUVECs in 2% FBS, cells were stimulated by 0.25 nM VEGF165, in the absence or presence of 1 µM HB-19 or 0.1 µM anti-nucleolin mAb MS-3 as indicated. After 72 h, cell number was determined by crystal violet staining. The data are reported as the mean of triplicate samples. (B) HB-19 inhibits migration of HUVECs. Cell migration was studied using a modified Boyden chamber. Cells were incubated (4 h at 37°C) with VEGF165, HB-19, or anti-nucleolin mAb MS-3 as above. Cells that migrated through the pore to the lower filter surface were counted and are shown as number per microscopic field at ×100 magnification. The data are the mean of three independent high-power fields/well performed in duplicate in two independent experiments. […] Aortic endothelial (ABAE) cells in the absence or presence of 3 nM PTN, 0.5 nM VEGF165, and 3 nM FGF-2 were seeded on a three-dimensional collagen gel in complete medium. Treatment with HB-19 or anti-nucleolin mAb MS-3 was for 3 days after cell plating. Tubular network structures were quantified using phase contrast microscopy (×100). The ordinate gives the number of pseudocapillaries corresponding to the means of three randomly chosen fields/well from three wells. (D) HB-19 inhibits […] angiogenic activity of growth factors in a Matrigel plug model. Liquid Matrigel was subcutaneously injected into the flank of Swiss mice in the absence or presence of 5 nM PTN, 10 nM FGF-2, and 1 µM HB-19. Quantification of endothelial cell invasion into the Matrigel was determined and is expressed as a mean of five fields per section from 3 Matrigel-plug sections per mouse. The results are expressed as the mean of five mice per group. Statistical significance: *p<0.05, **p<0.01, ***p<0.001.
Three-dimensional collagen gels were prepared following the procedure of Montesano with minor modifications. […] Tubular network structures were then quantified using phase contrast microscopy at 100× magnification. […]

ERK1/2 = assay: Serum-induced phosphorylation of ERK1/2; format: cell-based, human; details: 2, 5 and 10 µM HB-19; 5 min after 10% FBS
Method: (§1) Figure 5 Cell cycle perturbations induced by HB-19 treatment. (A) Analysis of cell cycle parameters in HB-19 treated cells. MDA-MB-231 cells were cultured for 48 hours in medium without FBS (starvation) or in medium containing 10% FBS supplemented or not with 10 µM HB-19. DNA synthesis was quantified after BrdU incorporation and staining with anti-BrdU antibody and 7-AAD, by FACScan analysis. The histograms indicate the relative amount of cells in G1, S and G2/M cell phases. […] Serum starved MDA-MB-231 cells were stimulated with 10% FBS in the absence or presence of 2, 5, and 10 µM of HB-19. Five minutes after serum stimulation, cells were lysed directly in electrophoresis sample buffer and processed for immunoblotting using anti-phospho-p42/44 ERK1/2 and anti-p42/44 ERK antibodies. NS stands for non-stimulated cells.

MDA-MB-231 cells = assay: BrdU incorporation and cell cycle analysis; format: cell-based, human; details: 10 µM HB-19, 48 hours, 10% FBS, compared to untreated cells
Method: as §1
Cell cycle analysis was performed using the FITC-BrdU flow kit (#559619) kit from BD Bioscience Pharmingen, according to the manufacturer's instructions. Briefly, MDA-MB-231 cells (1×10^5) were seeded in 12-multiwell and incubated 24 hours for adhesion. Cells were treated with HB-19 for 48 hours and labeled with BrdU (10 µM, 1 hour, 37°C), then they were trypsinized, fixed and treated with DNase (300 µg/ml, 1 hour, 37°C) before staining with anti-BrdU-FITC antibody and 7-AAD reagent. Cells were analyzed on a Becton Dickinson FACScan (fluorescence activated cell sorter), on FL1-H and FL3-H parameters for FITC and 7-AAD fluorescent dye respectively.

athymic nude mice = assay: Toxicity observations in treated nude mice; details: HB-19, 3 times per week; data not shown
[2] = test system: cells (surface nucleolin); assay: Internalization of nucleolin ligands (quoted); format: cell-based; details: HB-19, 20°C; compared with GROs

pseudo-tripeptide Lysψ(CH2N)-Pro-Arg coupled to a template (H2NLys-Lys-Lys-Gly-Pro-Lys-Glu-Lys-AhxCONH2) [HB-19, pseudopeptide presenting pentavalently the pseudo-tripeptide Lysψ(CH2N)-Pro-Arg coupled to a template]
inhibition of PTN induced angiogenesis (Swiss mice; 1 µM HB-19, 5 nM PTN): significantly inhibited the ex vivo angiogenesis | inhibition of FGF-2 induced angiogenesis (Swiss mice; 1 µM HB-19, 10 nM FGF-2): significantly inhibited the ex vivo angiogenesis | capillary-like structure formation, VEGF induced ([1]; 0.5 nM VEGF165, treatment 3 days): inhibited formation of capillary-like branched structures | tubular network formation, FGF-2 induced ([1]; 3 nM FGF-2, treatment 3 days): inhibits tubular network structure formation in collagen | capillary-like structure formation, PTN induced ([1]; 3 nM PTN, treatment 3 days): inhibited formation of capillary-like branched structures | serum-stimulated ERK1/ERK2 phosphorylation (ERK1/2): prevents enhanced phosphorylation of ERK1/ERK2 | decrease of cells in S phase (MDA-MB-231 cells): 62% | increase of cells in G1 phase (MDA-MB-231 cells): 9% | increase of cells in G2/M phase (MDA-MB-231 cells): 31% | evidence of toxicity (athymic nude mice): nor induced any evidence of toxicity such as diarrhea, infection, weakness, or lethargy | localization at 20°C [2]: remains aggregated at the plasma membrane
